Source: patent US20250019385A1, “SPIROCYCLIC ANNULATED 2-AMINO-3-CYANO THIOPHENES AND DERIVATIVES FOR THE TREATMENT OF CANCER” (Boehringer Ingelheim International GmbH, priority 2023, published 2025)
Read-outs that look alike come from different tables or passages of the source.

Columns and labels:
[1] = biological target: KRAS (G12D)::SOS1 protein-protein interaction (Homo sapiens (Human), UniProt P01116, G12D); assay: KRAS::SOS1 AlphaScreen binding assay (KRAS G12D); settings: GDP
Source text: This assay can be used to examine the potency with which compounds according to the invention binding to (mutated) KRAS inhibit the protein-protein interaction between SOS1 and (mutated) KRAS e.g. KRAS G12C, KRAS G12D. […] Low IC50 values in this assay setting are indicative of strong inhibition of protein-protein interaction between SOS1 and KRAS:
These assays measure the inhibitory effect of compounds on KRAS mutant protein-protein interactions using the Alpha Screen technology by Perkin Elmer.
The following (mutant) enzyme forms of KRAS and interacting proteins are used in these assays at the given concentrations:
KRAS (G12D) 1-169, N-terminal 6His-tag, C-terminal avi-tag (Xtal BioStructures, Inc.); final assay concentration 10 nM and SOS1 564-1049, N-terminal 229 GST-tag, TEV cleavage site (Viva Biotech Ltd); final assay concentration 5 nM;
Test compounds dissolved in DMSO are dispensed onto assay plates (Proxiplate 384 PLUS, white, PerkinElmer; 6008289) using an Access Labcyte Workstation with the Labcyte Echo 55x. For the chosen highest assay concentration of 100 μM, 150 nL of compound solution are transferred from a 10 mM DMSO compound stock solution. A series of eleven fivefold dilutions per compound are transferred to the assay plate, compound dilutions are tested in duplicates. DMSO are added as backfill to a total volume of 150 nL.
The assays run on a fully automated robotic system in a darkened room below 100 Lux. To 150 nl of compound dilution 10 μl of a mix including KRAS mutant protein, SOS1 (final assay concentrations see above) and GDP nucleotide (Sigma G7127; final assay concentration 10 μM) in assay buffer (1×PBS, 0.1% BSA, 0.05% Tween 20) are added into columns 1-24.
After 30 minutes incubation time 5 μl of Alpha Screen bead mix in assay buffer are added into columns 1-23. Bead mix consists of AlphaLISA Glutathione Acceptor Beads (PerkinElmer, Cat No AL109) and AlphaScreen Streptavidin Donor Beads (PerkinElmer Cat No 6760002) in assay buffer at a final assay concentration of 10 μg/mL each.
Plates are kept at room temperature in a darkened incubator. After an additional 60 minutes incubation time the signal is measured in a PerkinElmer Envision HTS Multilabel Reader using the AlphaScreen specs from PerkinElmer.
Each plate contains up to 16 wells of a negative control depending on the dilution procedure (platewise or serial) (DMSO instead of test compound; with KRAS mutant::SOS1 GOP mix and bead mix; column 23) and 16 wells of a positive control (DMSO instead of test compound; with KRAS mutant::SOS1 GOP mix w/o bead mix; column 24).
As internal control known inhibitors of KRAS mutant::SOS1 interaction can be measured on each compound plate.
IC50 values are calculated and analyzed with Boehringer Ingelheim's MEGALAB C50 application using a 4 parametric logistic model.
Tables of example compounds disclosed herein contain IC50 values determined using the above assays (see Table 43).

AsPC-1 cells = assay: AsPC-1 CTG proliferation assay (120 h) (pancreatic cancer, G12D); format: cell-based
Protocol: (§1) AsPC-1 cells (ATCC CRL-1682) are dispensed into black 384-well plates, flat and clear bottom (Greiner, PNr. 781091) at a density of 500 cells per well in 60 μl RPMI ATCC-Formulation (PAN P04-18047)+10% FCS (fetal calf serum, HyClone, SH30084.03). Cells are incubated overnight at 37° C. in a humidified tissue culture incubator at 5% CO2. Compounds (10 mM stock in DMSO) are added at logarithmic dose series using the ECHO acoustic liquid handler system (Beckman Coulter), normalizing for added DMSO and including DMSO controls. All compound treatments are performed in technical duplicates. For the TO time point measurement, untreated cells are analyzed at the time of compound addition. Plates are incubated for 120 h, and cell viability is measured using CellTiter-Glo luminescent cell viability reagent (Promega product code G7570). Viability (stated as percent of control) is defined as relative luminescence units RLU of each well divided by the RLU of cells in DMSO controls. IC50 values are determined from viability measurements by non-linear regression using a four-parameter model.
(§2) IC50 values of representative compounds according to the invention measured with these assays in the indicated cell lines are presented in Table 46.

MKN1 cells = assay: MKN1 CTG proliferation assay (120 h) (gastric cancer, wt amplified); format: cell-based; settings: Homo sapiens, MKN-1
Protocol: as §1, with “MKN1” for “AsPC-1”, “(JCRB0252)” for “(ATCC CRL-1682)”, “200” for “500”, “RPMI-1640” for “RPMI”, “(Gibco #A10491)+10%” for “(PAN P04-18047)+10%”
as §2

KRAS (G12D)::SOS1 protein-protein interaction, sequence (P01116 other isoform, or with tags, fused parts or gaps G12D): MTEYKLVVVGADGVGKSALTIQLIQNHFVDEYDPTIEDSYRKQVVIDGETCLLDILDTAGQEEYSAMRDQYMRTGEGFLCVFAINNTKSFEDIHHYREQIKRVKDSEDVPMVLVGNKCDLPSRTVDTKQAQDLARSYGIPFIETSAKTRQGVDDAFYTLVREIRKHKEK

IC50 [1] [nM]	IC50 (AsPC-1 cells; Homo sapiens, ASPC1) [nM]	IC50 (MKN1 cells) [nM]	SMILES	IC50 (AsPC-1 cells) [nM]
1	705	300	COCCn1c(=O)n([C@@H]2CCOC2)c2nc(-c3onc4c3CCC[C@@]43CCCc4sc(N)c(C#N)c43)nc(O[C@@H](C)[C@@H]3CCCN3C)c21 [I-1]	
2	1970	95	CO[C@H]1C[C@@H]([C@H](C)Oc2nc(-c3onc4c3CCC[C@@]43CCCc4sc(N)c(C#N)c43)nc3c2n(C)c(=O)n3[C@@H]2CCOC2)N(C)C1 [I-2]	
1	438	22	CO[C@@H]1C[C@@H]([C@H](C)Oc2nc(-c3onc4c3CCC[C@@]43CCCc4sc(N)c(C#N)c43)nc3c2n(C)c(=O)n3[C@@H]2CCOC2)N(C)C1 [I-3]	
4	2740	509	C[C@H](Oc1nc(-c2onc3c2CCC[C@@]32CCCc3sc(N)c(C#N)c32)nc2c1n(C)c(=O)n2[C@@H]1CCOC1)[C@@H]1[C@H](F)CCN1C [I-4]	
2	224	113	C[C@H](Oc1nc(-c2onc3c2CCC[C@@]32CCCc3sc(N)c(C#N)c32)nc2c1n(C)c(=O)n2[C@@H]1CCOC1)[C@@H]1[C@@H](F)CCN1C [I-5]	
2	607	90	CO[C@H]1CCN(C)[C@@H]1[C@H](C)Oc1nc(-c2onc3c2CCC[C@@]32CCCc3sc(N)c(C#N)c32)nc2c1n(C)c(=O)n2[C@@H]1CCCOC1 [I-6]	
5	4830	373	COCCn1c(=O)n(C)c2c(O[C@@H](C)[C@@H]3CCCN3C)nc(-c3onc4c3CCC[C@@]43CCCc4sc(N)c(C#N)c43)nc21 [I-7]	
1	1260	41	C[C@H](Oc1nc(-c2onc3c2CCC[C@@]32CCCc3sc(N)c(C#N)c32)nc2c1[nH]c(=O)n2[C@@H]1CCOC1)[C@@H]1CCCN1C [I-8]	
2	751	135	C[C@H](Oc1nc(-c2onc3c2CCC[C@@]32CCCc3sc(N)c(C#N)c32)nc2c1n(C)c(=O)n2[C@H]1CCOC1)[C@@H]1CCCN1C [I-9]	
5	3470	109	C[C@H](Oc1nc(-c2onc3c2CCC[C@@]32CCCc3sc(N)c(C#N)c32)nc2c1n(C)c(=O)n2C1CCOCC1)[C@@H]1CCCN1C [I-10]	
6	4480	334	C[C@H](Oc1nc(-c2onc3c2CCC[C@@]32CCCc3sc(N)c(C#N)c32)nc2c1n(C)c(=O)n2[C@H]1CCCOC1)[C@@H]1CCCN1C [I-11]	
1	326	10	C[C@H](Oc1nc(-c2onc3c2CCC[C@@]32CCCc3sc(N)c(C#N)c32)nc2c1n(C)c(=O)n2[C@@H]1CCCOC1)[C@@H]1CCCN1C [I-12]	
2	2370	11	C[C@H](Oc1nc(-c2onc3c2CCC[C@@]32CCCc3sc(N)c(C#N)c32)nc2c1[nH]c(=O)n2[C@@H]1CCCOC1)[C@@H]1CCCN1C [I-13]	
1	767	48	CO[C@@H]1C[C@@H]([C@H](C)Oc2nc(-c3onc4c3CCC[C@@]43CCCc4sc(N)c(C#N)c43)nc3c2n(C)c(=O)n3[C@@H]2CCCOC2)N(C)C1 [I-14]	
2	1630	47	C[C@H](Oc1nc(-c2onc3c2CCC[C@@]32CCCc3sc(N)c(C#N)c32)nc2c1n(C)c(=O)n2C12COC(C1)C2)[C@@H]1CCCN1C [I-15]	
12	3990	353	CO[C@H]1C[C@H](n2c(=O)n(C)c3c(O[C@@H](C)[C@@H]4CCCN4C)nc(-c4onc5c4CCC[C@@]54CCCc5sc(N)c(C#N)c54)nc32)C1 [I-16]	
2	1480	325	C[C@H](Oc1nc(-c2onc3c2CCC[C@@]32CCCc3sc(N)c(C#N)c32)nc2c1n(C)c(=O)n2[C@H]1CC2CCC1O2)[C@@H]1CCCN1C (some centres unmarked) [I-17]	
8	4320	457	C[C@H](Oc1nc(-c2onc3c2CCC[C@@]32CCCc3sc(N)c(C#N)c32)nc2c1n(C)c(=O)n2[C@@H]1CC2CCC1O2)[C@@H]1CCCN1C (some centres unmarked) [I-18]	
3	2990	1040	C[C@H](Oc1nc(-c2onc3c2CCC[C@@]32CCCc3sc(N)c(C#N)c32)nc2c1n(C)c(=O)n2[C@H]1CCC[C@@H]1O)[C@@H]1CCCN1C [I-19]	
1	246	8	C[C@H](Oc1nc(-c2onc3c2CCC[C@@]32CCCc3sc(N)c(C#N)c32)nc2c1n(C)c(=O)n2[C@@H]1CCOC1)[C@@H]1CCCN1C [I-20]	
1	327	22	CCn1c(=O)n([C@@H]2CCOC2)c2nc(-c3onc4c3CCC[C@@]43CCCc4sc(N)c(C#N)c43)nc(O[C@@H](C)[C@@H]3CCCN3C)c21 [I-21]	
2	1090	14	C[C@H](Oc1nc(-c2onc3c2CCC[C@@]32CCCc3sc(N)c(C#N)c32)nc2c1n(C)c(=O)n2[C@@H]1CCOC1)[C@@H]1C[C@@H](F)CN1C [I-22]	
1	540	6	CO[C@H]1CCN(C)[C@@H]1[C@H](C)Oc1nc(-c2onc3c2CCC[C@@]32CCCc3sc(N)c(C#N)c32)nc2c1n(C)c(=O)n2[C@@H]1CCOC1 [I-23]	
1			C[C@H](Oc1nc(-c2onc3c2CCC[C@@]32CCCc3sc(N)c(C#N)c32)nc2c1n(C)c(=O)n2[C@H]1CO[C@@H](C)C1)[C@@H]1CCCN1C [I-47]	
4			C[C@H](Oc1nc(-c2onc3c2CCC[C@@]32CCCc3sc(N)c(C#N)c32)nc2c1n(C)c(=O)n2[C@H]1CO[C@@H](C)C1)[C@@H]1CC[C@H](C)N1C [I-50]	
2			CO[C@H]1CCN(C)[C@@H]1[C@H](C)Oc1nc(-c2onc3c2CCC[C@@]32CCCc3sc(N)c(C#N)c32)nc2c1n(C)c(=O)n2[C@H]1COC[C@@H](C)C1 [I-51]	
1			CO[C@@H]1C[C@@H]([C@H](C)Oc2nc(-c3onc4c3CCC[C@@]43CCCc4sc(N)c(C#N)c43)nc3c2n(C)c(=O)n3[C@H]2COC[C@@H](C)C2)N(C)C1 [I-52]	
2	315		C[C@H](Oc1nc(-c2noc3c2CCC[C@@]32CCCc3sc(N)c(C#N)c32)nc2c1CCC21CCOC1)[C@@H]1CCCN1C (some centres unmarked) [II-18]	

SMILES	IC50 [1] [nM]	IC50 (AsPC-1 cells; Homo sapiens, ASPC1) [nM]	IC50 (MKN1 cells) [nM]	IC50 (AsPC-1 cells) [nM]
C[C@H](Oc1nc(-c2noc3c2CCC[C@@]32CCCc3sc(N)c(C#N)c32)nc2c1CC[C@]21CNCCO1)[C@@H]1C[C@@H](F)CN1C [II-20]	1			215
